Reference: the pKa sets of Baltruschat and Czodrowski (2020)

conditions: acidic group

Structure (SMILES)	pKa
O=[N+]([O-])c1cc(Br)ccc1O	6.36
CCCCc1c(C)nn(-c2ccccc2)c1O	11.4
CCC/C=C(\C)C(=O)O	5.13
CC(C#N)(Cc1ccccc1)C(=O)O (stereo not given)	2.29
C[NH+](C)Cc1cc(Cl)ccc1O	8.02
[NH3+]C(Cc1ccccc1)c1nnn[nH]1 (stereo not given)	1.93
Nc1nc2nc[nH]c2c([O-])[nH+]1	9.39
CC(C)C(Br)C(=O)O (stereo not given)	2.82
Oc1ccc2[nH]cnc2c1	10
CC(C)c1ccc(C(=O)/C=C/C(=O)O)cc1	3.4
COc1cc(/C=N/c2ncc3nc[nH]c3n2)ccc1O	8.91
[O-]c1ccc(O)cc1Br	10.7
NC(=O)C#CC#C/C=C/C(=O)O	3.52
CC(C)(O)C(=O)O	4.04
O=C1CNC(=O)N1	9.12
C[NH2+]CC(=O)c1ccc(O)cc1	7.7
Cn1cnc(C(=O)[O-])c1C(=O)O	3.9
c1nc2cc3c(cc2[nH]1)CCCC3	13.3
C[C@@]12CC(=O)N[C@]1(CCC(=O)[O-])C(=O)NC2=O	8.1
NC(=O)CCCc1ccccn1	5.48
Cc1cc(O)c(C(C)C)cc1Nc1ccc([O-])cc1	10.8
Nc1nc(O)[n+]([C@@H]2C[C@@H](O)[C@H](CO)O2)cc1CO	3.55

Structure (SMILES)	pKa
O=Cc1cccc(O)c1	8.86
O=C(CC(=O)C(F)(F)F)c1cccs1	6.31
COCc1ccccc1C(=O)O	3.85
CC(C)C1=CC2=CC[C@H]3[C@@](C)(CCC[C@]3(C)C(=O)O)[C@@H]2CC1	6.4
Cc1cc(O)c(C(C)C)cc1C	10.8
Cc1ccccc1O	10.2
O=C([O-])[C@H](NCC[NH2+][C@@H](C(=O)[O-])c1ccccc1[O-])c1ccccc1O	10.9
CC/C(=N/O)NO	10.7
Sc1cccc2ccc[nH+]c12	2.05
O=C(O)CCCc1cccs1	4.54
O=S(=O)(O)c1ccc(Br)cc1	-6.72
O=[N+]([O-])c1cccc(O)c1O	6.64
Cn1cc(O)[nH+]c1N	4.9
Cc1cccc(OC(O)(CBr)c2ccccc2)c1 (stereo not given)	11.2
NNC(=O)c1ccccn1	11.8
O=C(O)[c+]1cccccc1	3.29
CCCCNc1cc[nH+]c(S)n1	3.2
O=C(O)[C@H](P)CC[C@H](P)C(=O)O	3.54
O=C([O-])c1cc(O)c(O)c(C(=O)O)[o+]1	1.8
Oc1cccc2ccncc12	8.4
O=[N+]([O-])c1ccccc1O	7.15
O=C(O)c1cncs1	2.99

Structure (SMILES)	pKa
C=C(C)C(C)(C(N)=O)C(=O)O (stereo not given)	3.42
C#CC#CC=C=CC(O)CCC(=O)O (stereo not given)	4.8
Nc1ccc(S(=O)(=O)Nc2nncs2)cc1	4.77
COc1cc(C=O)ccc1O	7.38
COc1ccccc1-c1ccccc1O	10.4
Cc1cccc(SCC(=O)O)c1	3.52
Oc1ccc2ncsc2c1	9.21
O=C(O)C[NH+](CCNS(=O)(=O)c1ccc(CCBr)cc1)CC(=O)O	2.15
CCN(CC)CC(=N\O)/C(C)=N/O	10.7
O=C1/C(=N/O)C=Cc2ccccc21	7.52
CCCc1c(-c2ccccc2)n[nH]c1O	8
NC(=S)c1ccc([N+](=O)[O-])cc1	11.8
[O-]c1nc(NO)cc[n+]1[C@H]1O[C@@H](CO)[C@H](O)[C@@H]1O	10.5
C[n+]1ccncc1O	-0.04
CC(=O)C(C)C(=O)C(C)C (stereo not given)	11.8
Cc1noc(NS(=O)(=O)c2ccc(N)cc2)c1C	4.16
NCC(N)=O	8.05
Cc1ncsc1C(=O)O	3.54
C[NH+](C)CCc1ccc(O)cc1	9.46
O=C([O-])/C=N/O	10.2
O=C1CC(c2ccccc2)NC(=O)N1 (stereo not given)	11.2
C[N+](C)(C)O	4.65

Structure (SMILES)	pKa
Oc1ccc(F)cc1	9.88
CC[NH+](CC)Cc1cc([N+](=O)[O-])ccc1O	5.75
CC(/N=N/O)c1ccccc1 (stereo not given)	8.32
O=C(CC(=O)C(F)(F)F)c1ccccc1	6.3
[NH3+]CCc1cccc(O)c1	9.27
Nc1ccc(B(O)O)cc1	9.17
CC(=O)/C(=N/O)c1ccccc1	8.85
CCC1(C2=CCCCC2)C(=O)[N-]C(=S)NC1=O	11.8
CCCc1c(C)nn(-c2ccccc2)c1O	11.4
Nc1nc([S-])c2[nH]cnc2n1	11.6
Oc1ccc2c(cnc3ccccc32)c1	8.68
CN(C)c1cccc2c(S(=O)(=O)NCC[NH+](C)C)cccc12	8.33
O=C(O)c1ccc([N+](=O)[O-])o1	2.06
CC(C)S(=O)O	2.3
CC(=O)CC=O	6.12
Oc1cccc2c1-c1ccccc1-2	8.64
Cc1cccc(O)c1C	10.5
CCCOC(=O)c1ccc(O)cc1	8.3
Nc1nnc(S(N)(=O)=O)s1	7.69

same assay, conditions: basic group

Structure (SMILES)	pKa
N[C@@H](Cc1c[nH]cn1)C(=O)N[C@@H](Cc1c[nH]cn1)C(=O)[O-]	7.8
NCCNCc1ccccc1	9.41
CC1=C(CC(C)NCC(O)c2ccc(C)cc2)CCC1(C)C (stereo not given)	8.71
NS(=O)(=O)c1ccccc1C(=O)O	3.14
CN1C2=CCCC1CCC2 (stereo not given)	8.8
CN1C(=N)Cc2ccccc21	9.6
CCCn1cnc2ccccc21	5.46
CCCCCCCNCc1ccc(C)cc1	10
CCCCn1ccnc1	7.14
Clc1ccc(C2CN2)cc1 (stereo not given)	6.18
Brc1c[nH]cn1	3.8
CCOC(=O)C1CC2CCN1CC2 (stereo not given)	8.8
NCCCNCCC[NH3+]	9.72
CN(C)CCOC(C)(c1ccccc1)c1ccccn1 (stereo not given)	9.2
CS(=O)C(C)(C)C (stereo not given)	-1.71
Oc1ccc2[nH]cnc2c1	5.69
NC(=O)CC(=O)c1cccnc1	8.61
c1ccc(Oc2cccnc2)cc1	4.24
COc1cc(/C=N/c2ncc3nc[nH]c3n2)ccc1O	2.79
Cc1cnc2c(c1)c(C)c(C)c1cc(C)cnc12	5.54
CCN(C)CCOCC[NH+](CC)CC	8.46
Clc1ccc(-c2ccc(Cl)cn2)nc1	3.96
CCCn1ccnc1C	8.2
CCC(=O)C(CCN(C)C)(c1ccccc1)c1ccccc1	9.23
c1nc2cc3c(cc2[nH]1)CCCC3	5.98

Structure (SMILES)	pKa
CNCc1ccccn1	8.96
NCCCBr	8.93
c1ccc(CN2CCCC2)cc1	9.51
CC[C@]1(O)C[C@H](C)N[C@@H]2CCCC[C@H]21	10.1
N[C@@H]1CCC[C@H](O)C1	10.1
C#CCN1CCOCC1	5.54
COc1c(C)cccc1C(=O)N[C@@H]1C[C@H]2CC[C@@H](C1)N2Cc1ccccc1	8.92
Nc1cccc2cccnc12	4.01
CNNC	5.2
COc1cnccn1	0.75
CCSC(=O)c1cccc(Br)c1	-5.53
CC(C)(CN)CN	10.2
CSc1nccc(C)n1	1.95
C=CC(=O)NCCCN(C)C	9.23
CC1CCN(c2cc[nH+]cc2)CC1	-0.56
N=C(c1ccccc1)c1cccc(Cl)c1	5.69
N#Cc1ccncc1	1.91
[O-]c1ccnc2nccnc12	8.78
Cc1cnc([C@@H](O)[C@H](O)[C@H](O)CO)cn1	1.4
CCN(CC)CCC[C@@H](C)[C@H]1CC[C@H]2[C@@H]3CC[C@@H]4C[C@H](O)CC[C@]4(C)[C@H]3C[C@H](O)[C@]12C	10.3
CCC(C)(C)Nc1ccccc1	6.55
c1ccc(-c2ccoc2)nc1	4.65
Cc1cc2c(C)ccnc2c2ncccc12	5.71
CC/C(=N/O)NO	5.15
Cc1ccc2c(c1)c1c3n2CCN=C3CCC1	8.57

Structure (SMILES)	pKa
Nc1cc2ccccc2nn1	3.66
CCc1c(C)c[nH]c1C	3.19
CCCCCCCP(=O)(CCCCCCC)CCCCCCC	4.65
NNC(=O)c1ccccn1	2.86
CN(CCO)c1ccccc1	4.89
COc1cccc(CN(C)C)c1O	8.42
N=C(N)Nc1nccc(-c2csc(N)n2)n1	9.2
CSCCN	9.41
CC(C)C(N)C(C)C	10.4
CC/C(N)=N/O	5.95
CC(CN1CCCC(C)(C)C1)Nc1ccccn1 (stereo not given)	9.23
Nc1ccc(C(O)(c2ccccc2)c2ccc(N)cc2)cc1	5.83
NCCc1ccc(Cl)cc1	9.66
Oc1cccc2ccncc12	5.66
NCc1cccc(O)c1O	8.3
C/C(=C(\CCO)SSCCC(C)C)N(C=O)Cc1cnc(C)nc1N	5.58
C/N=c1/oc2c(n1C)CCCC2	10.2
CN(C)C1CCCCC1	10.5
Nc1ccc(S(=O)(=O)Nc2nncs2)cc1	2.15
CCCCN1CCCC1	10.4
COc1cccc(Nc2ccccc2)c1	0.37
C/N=c1/scc(C)n1C	9.97
c1cncc(-c2cccnc2)c1	4.6
Nc1ccc([NH3+])cc1	2.86
Clc1cc(-c2ccccc2)nnc1NCCN1CCOCC1	6.64

Structure (SMILES)	pKa
c1ccc(NCCN2CCCCC2)cc1	9.2
CC([Se-])CN (stereo not given)	10.8
Nc1ccncc1Br	7.15
O=C(CN1CCOCC1)c1ccccc1	5.97
COc1cccc2ccc(C)nc12	5.69
Cc1ccc2c(c1)ncn2[C@H]1O[C@@H](CO)[C@H](O)[C@@H](O)[C@@H]1O	4.32
CCCC(=N)OCC	7.08
NCCSCCN	9.64
Cc1cc(N)ccn1	9.44
Cc1ccnc(NS(=O)(=O)c2ccccc2)n1	0.59
Cc1[nH]nc(O)c1C(C)C	3
CN(C)c1ccc(C(=N)c2ccc(N(C)C)cc2)cc1	10.7
Nc1ccc(B(O)O)cc1	3.71
[O-]c1nncc2ccccc12	12
CCNCc1ccccc1	9.75
CC(C)N(CCC(c1ccccc1)c1ccccn1)C(C)C (stereo not given)	10.5
Nc1nc([S-])c2[nH]cnc2n1	8.2
Oc1ccc2c(cnc3ccccc32)c1	4.39
COc1ccc(Nc2ccc(N)cc2)cc1	5.9
c1ccc(-n2cccn2)nc1	1.07
CN(C)c1cccc2c(S(=O)(=O)NCC[NH+](C)C)cccc12	3.57
Cn1ncc2c(NCc3ccco3)ncnc21	3.8
CC(N)c1ccccc1 (stereo not given)	9.36
COCC/N=C(\c1ccccc1)C(C)(C)O	5.75
CCN(CC)S(=O)(=O)c1ccc(N)cc1	1.75
